Earlier results in patent US20040142353A1, “Compositions and methods for identifying plants having increased tolerance to imidazolinone herbicides” (priority 2002, published 2004).
Read-outs that look alike come from different tables or passages of the source.

Columns and labels:
[1] = tested on: B. napus mutants P1 and P2; conditions: B. napus (cv 'Topas') mutants P1 and P2
[2] = tested on: B. napus P1, P2, and P1×P2 hybrid; conditions: field trials

CCc1cnc(C2=NC(C)(C(C)C)C(=O)N2)c(C(=O)O)c1 (centres unmarked) [PURSUIT®, 2-[4,5-dihydro-4-methyl-4-(1-methylethyl)-5-oxo-1H-imidazol-2-yl]-5-ethyl-3-pyridinecarboxylic acid]
tolerance of mutant AHAS enzyme relative to wild type enzyme (AHAS enzyme; AHAS enzyme of homozygous P1 mutant vs wild type enzyme): only slightly more tolerant | tolerance of mutant AHAS enzyme relative to wild type enzyme (AHAS enzyme; AHAS enzyme of homozygous P2 mutant vs wild type enzyme): 500 times | level of herbicide tolerated by mutant plants [1]: approaching ten times the field-recommended rates

methyl esters of 2-[4,5-dihydro-4-methyl-4-(1-methylethyl)-5-oxo-1H-imidazol-2-yl]-4-methylbenzoic acid and 2-[4,5-dihydro-4-methyl-4-(1-methylethyl)-5-oxo-1H-imidazol-2-yl]-5-methylbenzoic acid [ASSERT®]
application rate withstood with no loss of yield [2]: up to 800 g/ha | level of herbicide tolerated by mutant plants [1]: approaching ten times the field-recommended rates
